Where “and” joins values, the source holds several entries; their conditions need not be identical. Identical values can stand only once. Counter-ions that a name gives are not always drawn.
Key:
[1] = test system: systolic blood pressure; experiment: Antihypertensive activity, reduction in systolic blood pressure, single oral medication, unanesthetized spontaneous hypertensive rat; format: in vivo; conditions: P.O., single dose, unanesthetized SH rat
Method: Antihypertensive activity was determined on the basis of the observed reduction in systolic blood pressure measured according to the method of H. Kersten et al., J. Lab. and Clin. Med. 32, 1090 (1947) following a single oral medication in the unanesthetized spontaneous hypertensive rat described by Okamato et al., Japan Circulation J. 27, 282 (1963).
^a AHD40 = single oral dose required to induce a 40 mm. average

[2] = test system: blood pressure; experiment: Antihypertensive activity, sustained lowering of blood pressure, repeated oral medication, unanesthetized trained renal hypertensive dog; format: in vivo; conditions: tid.
Excerpt: Antihypertensive activity was also judged on the basis of sustained reduction of blood pressure observed in the unanesthetized trained renal hypertensive dog following repeated oral medication according to the procedure described by Lape et al., Arch.
^b MED10 = minimum repeated oral daily dose required to effect a

[3] = test system: hind limb vasculature; experiment: Vasodilator activity, perfusion pressure in hind limb vasculature of anesthetized dog; format: in vivo
Excerpt: Vasodilator activity was judged on the basis of observed reduction in perfusion pressure in the hind limb vasculature of the anesthetized dog determined according to the procedure described by Jandhyala et al., European J. Pharm. 17, 357 (1972), and also on the basis of percent reduction in perfusion pressure as measured in the isolated rabbit ear artery according to the method described by De LaLande et al., Aust. J. Exp. Biol. Med. Sci. 43, 639 (1965).
^c AED50 = approximate intraarterial dose required to cause a 50

[4] = test system: isolated rabbit ear artery; experiment: Vasodilator activity, perfusion pressure in isolated rabbit ear artery
Outline: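 Percent reduction in perfusion pressure of the isolated rabbit ear artery (De LaLande method) as the vasodilation read-out; vasodilator activity also judged from reduced hind-limb perfusion pressure in the anesthetized dog.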

[5] = test system: β-adrenergic; experiment: β-adrenergic blocking activity, inhibition of isoproterenol-elicited heart rate increase in pentobarbitalized dog; format: in vivo; conditions: i.v., pentobarbitalized dog
Method: The β-adrenergic blocking activity was determined in the pentobarbitalized dog as judged by the ability of the test compound to inhibit the elevation in heart rate elicited by a 0.5 mcg./kg. i.v. injection of isoproterenol.
^e AED50 = approximate intravenous dose required to cause 50%

[6] = test system: histamine-induced bronchoconstriction; experiment: β-adrenergic stimulant activity, block of histamine-induced bronchoconstriction in the dog; format: in vivo
[7] = Local anesthetic activity (method of Bulbring and Wadja); format: in vivo; conditions: compared with procaine
Method: D. Following a procedure similar to that described in Example 2G but using 2.5 g. (0.0049 mole) of dextrorotatory 4-hydroxy-α-<{[3-(4-methoxyphenyl)-1-methylpropyl]amino}methyl>- 3-(methylthio)benzenemethanol acetate salt (m.p. 124°-126° C., [α]D^25 =+7.7°) and 375 mg. of commercial 40% peracetic acid there was obtained 2.0 g. of 4-hydroxy-α-<{[3-(4-methoxyphenyl)-1-methylpropyl]amino}methyl>-3-(methylsulfinyl)benzenemethanol acetate salt as an amorphous yellow powder [α]D^25 =+4.2° containing a mixture of 4 diastereomeric sulfoxides. […] Exp. Therap. 85, 78 (1945).

[8] = 7-day oral LD50 in rats; format: in vivo
[9] = test system: Ouabain-induced arrhythmia; experiment: Conversion of ouabain-induced arrhythmia in dogs; format: in vivo, mongrel dogs; parameters: key: active (A); inactive (I); conditions: 5 × 10^-6 M/kg.
Method: (§1) The test procedures were carried out as follows.
Na-pentobarbital supplements were given i.v. as needed.
Both parameters were printed out on a Grass polygraph.

[10] = test system: Ba++-induced arrhythmia; experiment: Conversion of Ba++-induced arrhythmia in rabbits; format: in vivo; parameters: key: active (A); inactive (I); conditions: 1 × 10^-5 M/kg.
Method: as §1
Adult rabbits or either sex weighing between 1.7 and 2.3 kg. were anesthetized with 30 to 35 mg./kg. Na-pentobarbital i.v. via a marginal ear vein. Monoplar ECG pin electrodes were inserted for a lead II display on a Model 5 Grass Polygraph using standard electrocardiographic procedures. A 23 ga. hypodermic needle, attached via a polyethylene catheter to a 10 cc. syringe, was inserted into the same vein as was used for anesthesia. A BaCl2.2H2 O solution in saline was then infused at a constant volume of 0.2 cc/min. from a Harvard Apparatus Model 600 infusion pump. This infusion was not stopped until termination of the experiment. In some studies barium chloride in distilled water was used without detectable differences. The standard rate of BaCl2.2H2 O infusion was established at 0.3 mg./kg./min. (1.2×10^-6 M/kg./min.), and the concentration was adjusted appropriately in each case to accommodate the weight of the rabbit.
When the desired arrhythmia was established, the test compound was introduced as a water or saline solution into the marginal ear vein of the unused ear. The volume used was between 0.5 and 2.0 cc./kg. and was injected as a bolus over approximately 30 seconds. Deviations from standard vehicle, rate of injection and total volume administered were at the discretion of the operator. The standard initial dose of an unknown compound on the first rabbit was 5×10^-5 M/kg. In general, two to three rabbits were used to determine anti-arrhythmic activity and the dose range of activity; multiple doses were administered. Once activity and dose was indicated, two additional rabbits were employed to confirm anti-arrhythmic activity against a multifocal tachycardia.

[11] = test system: isolated cat atria; experiment: Cardiotonic test procedure I, isolated cat atria; conditions: for Increase in right atrial force / Increase in right atrial rate: in vitro
Method: The efficacy of this compound was judged, in vitro, on the basis of percent increase in contractile force in isolated cat atria and papillary muscle and, in vitro, on the basis of percent increase in cardiac contractile force in the intact anesthetized dog. Male cats weighing from 0.8 to 1.5 kg. were anesthetized with α-chloralose (80 mg./kg. i.p.). The chest was opened, the heart excised and the two atria dissected. A silk suture was tied to each of two opposite sides of the right atrium. One side of the atrium was tied to a glass rod and then mounted in a 50 ml. organ bath filled with Tyrode's solution. […] The transducer was then connected to a Grass polygraph and the force and rate of atrial contraction was recorded continuously. The left atrium was treated similarly using silver wire instead of silk sutures. The silver wire also served as a stimulating electrode. Both atria were mounted in the same bath. The right atrium was beating spontaneously due to the presence of the sinoatrial node, while the left atrium was stimulated electrically at a rate of 3 beats/sec. by suprathreshold rectangular pulses of 5 millisecond duration. The Tyrode's solution bathing the atria was of the following composition (in mM): NaCl 136.87, KCl 5.36, NaH2 PO4 0.41, CaCl2 1.80, MgCl2 6H2 O 1.05, NaHCO3 11.90, glucose 5.55 and EDTA 0.04. […] The preparation was left to equilibrate for one hour before any drug was added. The bathing fluid was changed 3 to 4 times during the equilibration time. At the end of equilibration period, the drug dissolved in a vehicle or the vehicle alone was added to the tissue bath and the full response recorded. The vehicle used was Tyrode' s solution to which, if required, sufficient acid was added to cause solution of the drug. […] Generally, a dose response study of at least 3 doses was done in the same preparation.

[12] = test system: papillary muscle; experiment: Cardiotonic test procedure IB, isolated cat papillary muscle; conditions: in vitro
Method: The efficacy of this compound was judged, in vitro, on the basis of percent increase in contractile force in isolated cat atria and papillary muscle and, in vitro, on the basis of percent increase in cardiac contractile force in the intact anesthetized dog. Male cats 0.8 to 1.5 kg. were anethetized with α-chloralose (80 mg./kg. i.p.). The chest was opened and the heart excised. The heart was dipped and shaken in Tyrode's solution for the removal of blood from the cavities. The right ventricle was then slit open and the small and thin (about 1 mm. in diameter and 4 to 7 mm. in length) papillary muscles were dissected out. A silver wire was attached to each of the two ends of the papillary muscle. The ventricular end was attached to a platinum electrode and mounted in a tissue bath containing Tyrode's solution described above. The silver wire on the valvular end of the muscle was attached to a force displacement transducer for the measurement of the force and rate of muscle contraction. The muscle was stimulated at a rate of 3 beats/sec. by suprathreshold rectangular pulses of 5 millisecond duration. The rest of the procedure was continued as described above.

[13] = test system: cardiac contractile force; experiment: Cardiotonic test procedure II, intact anesthetized dog; format: in vivo, mongrel dogs; conditions: i.v. infusion 10 mcg./kg./min. over 3 hrs.
Method: The efficacy of this compound was judged, in vitro, on the basis of percent increase in contractile force in isolated cat atria and papillary muscle and, in vitro, on the basis of percent increase in cardiac contractile force in the intact anesthetized dog. The in vivo test procedure used is described as follows: Mongrel dogs of both sexes and varying in weight from 9 to 15 kg. were anesthetized with 30 mg./kg. pentobarbital sodium administered intravenously. The trachea was exposed and cannulated. The tracheal cannula was then attached to a Harvard respiratory pump using room air. The right femoral artery and vein were cannulated. […] The venous cannula was used for the intravenous administration of drugs. Pin electrodes were attached to the right forelimb and left hindlimb. The electrodes were then connected to a Grass polygraph for the continuous recording of the standard limb lead II electrocardiogram. A ventro-dorsal incision at the third inter-costal space was made, the ribs laterally retracted and the pericardium slit open to expose the myocardium. The base of the aorta was dissected and a flow probe was fitted around it. The flow probe was attached to a square wave electromagnetic flowmeter (Carolina Medical Electronics). The flowmeter was then connected to a Grass polygraph for the continuous recording of aortic blood flow. This flow was used as an index of cardiac output (actual cardiac output is aortic blood flow+coronary blood flow). Cardiac contractile force was measured by suturing a Walton-Brodie strain gauge to the wall of the right ventricle. At the end of the surgical procedure, the animal was left to rest and equilibrate for one hour with continuous recording of blood pressure, EKG, cardiac contractile force and aortic blood flow. After the equilibration period, the vehicle or the drug dissolved in the vehicle was administered by intravenous infusion (i.v. inf.), intravenous bolus (i.v. bol.) or intraduodenally (i.d.) and the response of all the parameters measured to drug administration was recorded continuously for different periods of times depending on the route of drug administration. When the route of administration was i.v. inf., the drug was administered until a peak effect was reached and infusion was then maintained for ten minutes. The above-described test systems were standardized using dopamine.

Structure (SMILES): COc1ccc(CC(C)NCC(O)c2ccc(O)c([S+](C)[O-])c2)cc1 (stereo not drawn) [Example 1I, 4-hydroxy-α-<{[2-(4-methoxyphenyl)-1-methylethyl]amino}methyl>-3-(methylsulfinyl)benzenemethanol hydrochloride]
- Antihypertensive activity SH Rat AHD40 (single oral dose required to induce a 40 mm. average reduction in systolic blood pressure) [1]: 2.0 mg/kg
- Renal Hypertensive Dog MED10 (minimum repeated oral daily dose for sustained lowering of blood pressure of 10% or greater) [2]: 1.25 mg/kg
- ED50 ([3]; Canis lupus familiaris, read-out: Vasodilator activity Dog-Leg Perfusion AED50 (approximate intraarterial dose for 50 reduction in perfusion pressure)): 0.25 mg/kg
- Rabbit Ear Artery vasodilation (percentage reduction in perfusion pressure from control level) ([4]; 6.25 × 10^-5 M, 62.5 µM): 53%
- Dog β-blockade AED50 (approximate intravenous dose for 50% inhibition of isoproterenol-elicited heart rate increase) [5]: 0.04 mg/kg
- β-adrenergic stimulant activity [6]: ability to block histamine-induced bronchoconstriction in the dog

Structure (SMILES): COc1ccc(CCC(C)NCC(O)c2ccc(O)c([S+](C)[O-])c2)cc1 (stereo not drawn) [Example 5D, 4-hydroxy-α-<{[3-(4-methoxyphenyl)-1-methylpropyl]amino}methyl>-3-(methylsulfinyl)benzenemethanol acetate salt]
- Antihypertensive activity SH Rat AHD40 (single oral dose required to induce a 40 mm. average reduction in systolic blood pressure) ([1]; acetate salt): 3.0 mg/kg
- Renal Hypertensive Dog MED10 (minimum repeated oral daily dose for sustained lowering of blood pressure of 10% or greater) [2]: 0.0316 mg/kg
- Vasodilator activity Dog-Leg Perfusion AED50 (approximate intraarterial dose for 50 reduction in perfusion pressure) ([3]; intraarterial, anesthetized dog hind limb, acetate salt): 0.5 mg/kg
- Rabbit Ear Artery vasodilation (percentage reduction in perfusion pressure from control level) ([4]; 5 × 10^-5 M, 50 µM, acetate salt): 49%
- Dog β-blockade AED50 (approximate intravenous dose for 50% inhibition of isoproterenol-elicited heart rate increase) ([5]; acetate salt): 0.125 mg/kg
- Local anesthetic activity [7]: equi-active with procaine as a local anesthetic

Structure (SMILES): COc1ccc(CCC(C)NCC(O)c2ccc(O)c([S+](C)[O-])c2)cc1 (stereo not drawn) [Example 5E, 4-hydroxy-α-<{[3-(4-methoxyphenyl)-1-methylpropyl]amino}methyl>-3-(methylsulfinyl)benzenemethanol acetate salt]
- Body weight and gross tissue changes ([8]; animals sacrificed 7 days post-medication): No changes in body weight and no gross tissue changes
- 7-day oral LD50 ([8]; oral, rats, two separate batches, acetate salt, 10080 min): 1940 mg/kg
- LD50 at 168 h ([8]; rat, in vivo, po, rats, two separate batches): 1850 mg/kg

Structure (SMILES): COc1ccc(CCC(C)NCC(O)c2ccc(O)c([S+](C)[O-])c2)cc1 (stereo not drawn) [Example 5H, 4-hydroxy-α-<{[3-(4-methoxyphenyl)-1-methylpropyl]amino}methyl>-3-(methylsulfinyl)benzenemethanol hydrochloride]
- Rabbit Ear Artery vasodilation (percentage reduction in perfusion pressure from control level) ([4]; 1 × 10^-4 M, 100 µM, hydrochloride): 64%
- Conversion of Ouabain-induced Arrhythmia [9]: A
- Conversion of Ba++-induced Arrhythmia [10]: A
- Increase in right atrial force ([11]; 1 mg./ml.): 52%
- Increase in right atrial rate ([11]; 1 mg./ml.): 62%
- Increase in right atrial force ([11]; 10 mcg./ml.): 46%
- Increase in right atrial rate ([11]; 10 mcg./ml.): 53%
- Cardiotonic activity (in words) ([11]; one or more of the cardiotonic test procedures): useful cardiotonic activity
- Decrease in papillary muscle force ([12]; 1 mg./ml.): 14%
- Decrease in papillary muscle force ([12]; 10 mcg./ml.): 12%
- Change in heart rate ([13]; 2 of 3 dogs): no significant change in heart rate
- Maximum increase in cardiac contractile force ([13]; 2 of 3 dogs, I, hydrochloride): 25% and 42%
- Decrease in contractile force ([13]; remaining dog): 30%
- Decrease in heart rate ([13]; remaining dog): 33%

Reference: patent publication US4374149A, “α-{[(Arylalkyl)amino]alkyl}-4-hydroxy-3-(lower-alkylsul finyl)benzenemethanols” (Sterling Drug Inc., priority 1978, dated 1983)
